Test results reported in patent US10441536B2, “Micronized colistimethane sodium pharmaceutical compositions” (Forest Laboratories Holdings Limited, priority 2013, dated 2019).

Legend:
[1] = assay type: in vivo, patients
Protocol: In one clinical trial, the absorption of the powdered colistimethate sodium into the airways of the lungs was measured (specific airway conductance). […] This is a very high uptake, and more than would be expected from a powdered drug. […] In a second trial, patients were given a premedication dose of 200 micrograms of salbutamol. […] In an alternative medication regime, the salbutamol can be mixed into the same capsule as the colistin sulphomethate sodium.

[2] = Water content (Karl-Fisher) of colistimethate sodium powder and gelatin capsules in various storage conditions; assay type: physicochemical; set-up: unit not given here; conditions: n = 3
Protocol: Aliquots of colistimethate sodium encapsulated in gelatin capsules were stored in relative humidity ranging from about 20% RH to about 80% RH at ambient temperature conditions. Encapsulated colistimethate sodium was tested for moisture content and piercing performance at several time points. For example, the capsules were tested at 23° C. at 30% RH, 23° C. at 40% RH, 23° C. at 48% RH, 23° C. at 75% RH at different time points such as 1, 2, 4, and 24 hrs. Storage conditions were generated using qualified stability chambers set at the target temperature 23° C.±2° C. and the set relative humidity ±5% RH. Ambient laboratory conditions were determined to be at about 23° C.±2° C., 48% RH. Ambient conditions were verified using calibrated NIST thermo-Hygrometers. Average moisture content of colistimethate sodium as well as the moisture content of gelatin capsules was determined using Karl-Fisher determination.

[3] = system: gram negative microbial organisms; assay: Synergy of activity of the mixture of components; assay type: cell-based
Description: Colistimethate sodium is a negatively charged molecular ion with positively charged sodium counter ions. […] There are five sulphomethate groups (CH2—OS02^−). U.S. Pat. No. 5,767,068 refers to variable groups Rx and R2; Rx is identified as 6-methyloctanoyl or 6-methylheptanoyl, and R2 as sec-butyl, isobutyl or isopropyl.

[4] = in vivo; cited from earlier work

With `CC(C)(C)NCC(O)c1ccc(O)c(CO)c1` (stereo not shown) [salbutamol] the airway conductance ([1]; premedication dose of 200 micrograms, second trial) was “appeared to improve airway conductance”.

With “colistin sulphomethate sodium [colistimethate sodium]” the “Water Content (KF)” value ([2]; 23° C./30% RH, 0 hr) was 5.44, the “Water Content (KF)” value ([2]; 23° C./30% RH, 1 hr) was 5.28 and the “Water Content (KF)” value ([2]; 23° C./30% RH, 2 hr) was 5.85. The “Water Content (KF)” value ([2]; 23° C./30% RH, 4 hr) was 5.94, the “Water Content (KF)” value ([2]; 23° C./30% RH, 24 hr) was 6.54 and the “Water Content (KF)” value ([2]; 23° C./40% RH, 0 hr) was 5.44. For the same compound, the “Water Content (KF)” value ([2]; 23° C./40% RH, 1 hr) was 5.96, the “Water Content (KF)” value ([2]; 23° C./40% RH, 2 hr) was 5.81 and the “Water Content (KF)” value ([2]; 23° C./40% RH, 4 hr) was 6.51. The “Water Content (KF)” value ([2]; 23° C./40% RH, 9 hr) was 6.50, the “Water Content (KF)” value ([2]; 23° C./40% RH, 24 hr) was 9.54 and the “Water Content (KF)” value ([2]; 23° C./48% RH, 0 hr) was 5.44. The “Water Content (KF)” value ([2]; 23° C./48% RH, 1 hr) was 5.68, the “Water Content (KF)” value ([2]; 23° C./48% RH, 2 hr) was 6.39 and the “Water Content (KF)” value ([2]; 23° C./48% RH, 4 hr) was 6.64. For the same compound, the “Water Content (KF)” value ([2]; 23° C./48% RH, 24 hr) was 14.49, the “Water Content (KF)” value ([2]; 23° C./75% RH, 0 hr) was 5.44 and the “Water Content (KF)” value ([2]; 23° C./75% RH, 1 hr) was 7.04. The “Water Content (KF)” value ([2]; 23° C./75% RH, 2 hr) was 6.96, the “Water Content (KF)” value ([2]; 23° C./75% RH, 4 hr) was 10.74 and the “irritation of the lungs” value ([1]; human, in vivo) was “does not cause irritation”. For the same compound, the “specific airway conductance, whole body plethysmography, compared with traditional nebulised colistimethate sodium” value ([1]; human, in vivo) was “did not show any noticeable difference”, the “activity of the mixture of components against gram negative microbial organisms” value [3] was “synergy of activity” and the “absorption into the bloodstream” value [4] was “poorly absorbed”.
